Structures are written as SMILES.

The text below walks through data of patent US7605153B2, “Use of paullone derivatives for the production of medicaments for the treatment of mucoviscidosis and diseases related to protein addressing errors in cells” (Centre National de la Recherche Scientifique - CNRS, priority 2005, dated 2009).

For data set [1], the target named is T1, delF508-CFTR (Homo sapiens, UniProt P13569, DEL508-508).
T1 construct: CF15 human lung epithelial cells homozygous for the delF508 deletion; endogenous in cells; host or cells: CF15 human nasal/lung epithelial cells, homozygous delF508
The data set is described as follows: iodide efflux, delF508 addressing in CF15 cells. Type of data set: cell-based. The following applies: for effect of known CFTR inhibitors on delF508 activity after treatment with kenpaullone: CF15 cells treated with kenpaullone, iodide transport; for delF508-CFTR activity (iodide efflux) normalised to MPB-91 standard treatment: CF15 cells treated 2 hrs at 37° C., stimulation 10 μM Forskoline+30 μM Genisteine, 250 μM MPB-91 for 2 hrs = 100%, alsterpaullone 100 μM. The protocol:
CF15 cells: CF15 cells are human nasal epithelial cells expressing the AF508-CFTR gene.
The cells are incubated in an appropriate medium in 24-well plates. […] The iodide equilibrates on either side of the cell membrane. The following steps are performed using a robot (MultiPROBE, Packard): the loading medium is rinsed with efflux medium in order to eliminate extracellular radioactivity. The supernatant is collected every minute into haemolysis tubes and the medium is replaced by an equivalent volume of medium (500 μl). No drug is added to the samples taken in the first three minutes in order to obtain a stable baseline characterising the passive exit of I ions. The 7 samples that follow are obtained in the presence of the molecule to be tested. At the end of the experiment, the cells are lysed by adding 500 μl of 0.1 N NaOH/0.1% SDS (30 min), which allows determining the level of radioactivity remaining inside the cell. The radioactivity present in the haemolysis tubes is measured as counts per minute (cpm) using a gamma counter (Cobra II, Packard). […] This iodide flux is represented by a graph. In order to quantify the iodide efflux due to administration of the tested molecule, the relative flux is calculated as follows in order to ignore the basal flux: Relative velocity (min^−1)=Rpeak−Rbasal. […] The results are presented in the form of a mean+/−SEM. Student's statistical test is used to compare the effect of the various drugs with the controls (the corresponding P<0.01 values are considered to be statistically significant).
The study of delF508-CFTR protein addressing is performed in the laboratory by using a combination of pharmacological, cellular imagery, biochemical and electrophysiological tests on CF15 human lung epithelial cells homozygous for the delF508 deletion. For each experiment, the addition of a cocktail (10 μM Forskoline+30 μM Genisteine) allows activation of the CFTR when the latter is localised at the membrane. This allows an iodide efflux to be observed if delF508 addressing has been restored.

For data set [2], the target named is T1, delF508-CFTR. The data set is described as follows: immunolabelling, cellular localisation of delF508-CFTR in CF15 cells. The data set is classed as cell-based. The conditions noted are these: 100 μM. The protocol:
Immunolabelling allows visualising the cellular localisation of the CFTR protein by an anti-CFTR primary antibody (Ab), and a secondary Cy3-labelled fluorescent antibody directed against the primary antibody.
The cells are first seeded on cover slips in an appropriate culture medium. The cells are then washed 3 times with TBS (157 mM NaCl, […] Tris base, pH 7.4) of 5 min. each time and then fixed by adding 3% TBS-paraformaldehyde for 20 min. After 3 washes with TBS (5 min), the cells are incubated with 0.1% TBS-triton (10 min) to make holes in the cell membrane, and then washed 3 times with TBS before being exposed to 0.5% TBS-BSA-0.05% saponin for 1 hr. The cells are then incubated with the primary anti-CFTR C terminal antibody (2 μg/ml) for 1 hr. The cells are washed 3 times (5 min. each) with TBS-BSA-saponin before incubating with the GAM-cy3 secondary antibody ( 1/400) for 1 hr. After 2 TBS washes (5 min. each), the nuclei are labelled by incubating with Topro3 ( 1/1,000) for 5 min. Finally, the cover slips can be mounted on a glass slide after 3 final TBS washes of 5 min. each. The slides are observed with a confocal microscope (Bio-Rad) using laser excitation at appropriate wave-lengths. In order to differentiate Cy3 from Topro3 labelling, the colour of the Topor3 fluorescence has been changed to blue (colour of the nuclei). […]

For data set [3] the following is noted: in vivo; cited from earlier work.
The target in data set [4] is T2, wild-type CFTR (Homo sapiens, UniProt P13569).
T2 construct: Calu-3 cells are human lung epithelial cells expressing the wild-type CFTR gene; endogenous in cells; host or cells: Calu-3 human lung epithelial cells
The data set can be described thus: iodide efflux, CFTR addressing in Calu-3 cells after 2 hrs treatment. The conditions noted are these: Calu-3 cells treated for 2 hrs, 100 μM. Type of data set: cell-based. The method, then: (§1) Calu-3 cells: Calu-3 cells are human lung epithelial cells expressing the wild-type CFTR gene.
(§2) Measurements of chloride ion transport in the cells were performed using the radioactive iodide efflux technique (Becq et al., Journal of Biological Chemistry 274, 27415-27425 (1999); Dormer et al., Journal of Cell Science 114, 4073-4081 (2001). The ^125I tracer is incorporated into the intracellular milieu. Then, the quantity of radiotracer coming out of the cell is then measured after adding various pharmacological agents. Iodide is used as a tracer of chloride ion transport. ^125I has the advantage of being short-lived compared to other markers such as ^35Cl (respective half-lives: […] and 300,000 years).
(§3) The cells are incubated in an appropriate medium in 24-well plates. The cells are rinsed twice with efflux medium (136.6 mM NaCl, 5.4 mM KCl, 0.3 mM KH2PO4, 0.3 mM NaH2PO4, 4.2 mM NaHCO3, 1.3 mM CaCl2, 0.5 mM MgCl2, 0.4 mM MgSO4, 10 mM HEPES, 5.6 mM D-glucose) in order to eliminate dead cells, which release radioactivity in an anarchic fashion. […] The following steps are performed using a robot (MultiPROBE, Packard): the loading medium is rinsed with efflux medium in order to eliminate extracellular radioactivity. […] The radioactivity present in the haemolysis tubes is measured as counts per minute (cpm) using a gamma counter (Cobra II, Packard). […]

In a further data set the test system is CHO-WT cells. The data set is described as follows: MTT cytotoxicity test. Type of data set: cell-based, Chinese Hamster. The following applies: CHO-WT cells incubated 2 hrs, different concentrations. The protocol: CHO-WT cells: CHO (Chinese Hamster Ovary) cells are fibroblasts transfected with the wild-type CFTR gene (CFTR-WT). These cells will therefore overexpress the CFTR protein.
The MTT cytotoxicity test is a […] test based on the capacity of mitochondrial dehydrogenases to metabolise MTT (a yellow tetrazolium salt) into formazan (purple). The absorbance is proportional to the concentration of converted dye and can then be measured by spectrophotometry. The cells are incubated in 96-well microplates in the presence of the agent to be tested for 2 hours. Three controls are performed: 100% live cells: cells without any agent; 0% live cells: cells left under normal atmosphere; blank: medium without cells. The cells are rinsed with RPMI medium without phenol red in order for the colour of the medium not to interfere with absorbance measurements. They are then incubated for 4 hours with 100 μl RPMI solution supplemented with MTT (0.5 mg/ml). The medium is eliminated, 100 μl DMSO is added which permit to dissolve the converted dye (formazan). The absorbance is measured by spectrophotometry at 570 nm (purple); 630 nm (background noise). In order to ignore the background noise, the following calculation is performed: DOreelle=DO570nm−DO630nm. The results are then normalised with respect to the controls (100% and 0% live cells) and presented in the form of a mean+/−SEM. […]

Data set [5] addresses T2, wild-type CFTR. The data set is described as follows: iodide efflux, CFTR activity in Calu-3 cells (test as activator). The following applies: n=8, controls forskoline 5 μM, MPB-91 250 μM. Type of data set: cell-based. The method, then: as §1, §2, §3
The subject of a further data set is GSK-3. The conditions noted are these: cited from earlier work.

T1 sequence (P13569 with tags, fused parts or gaps DEL508-508): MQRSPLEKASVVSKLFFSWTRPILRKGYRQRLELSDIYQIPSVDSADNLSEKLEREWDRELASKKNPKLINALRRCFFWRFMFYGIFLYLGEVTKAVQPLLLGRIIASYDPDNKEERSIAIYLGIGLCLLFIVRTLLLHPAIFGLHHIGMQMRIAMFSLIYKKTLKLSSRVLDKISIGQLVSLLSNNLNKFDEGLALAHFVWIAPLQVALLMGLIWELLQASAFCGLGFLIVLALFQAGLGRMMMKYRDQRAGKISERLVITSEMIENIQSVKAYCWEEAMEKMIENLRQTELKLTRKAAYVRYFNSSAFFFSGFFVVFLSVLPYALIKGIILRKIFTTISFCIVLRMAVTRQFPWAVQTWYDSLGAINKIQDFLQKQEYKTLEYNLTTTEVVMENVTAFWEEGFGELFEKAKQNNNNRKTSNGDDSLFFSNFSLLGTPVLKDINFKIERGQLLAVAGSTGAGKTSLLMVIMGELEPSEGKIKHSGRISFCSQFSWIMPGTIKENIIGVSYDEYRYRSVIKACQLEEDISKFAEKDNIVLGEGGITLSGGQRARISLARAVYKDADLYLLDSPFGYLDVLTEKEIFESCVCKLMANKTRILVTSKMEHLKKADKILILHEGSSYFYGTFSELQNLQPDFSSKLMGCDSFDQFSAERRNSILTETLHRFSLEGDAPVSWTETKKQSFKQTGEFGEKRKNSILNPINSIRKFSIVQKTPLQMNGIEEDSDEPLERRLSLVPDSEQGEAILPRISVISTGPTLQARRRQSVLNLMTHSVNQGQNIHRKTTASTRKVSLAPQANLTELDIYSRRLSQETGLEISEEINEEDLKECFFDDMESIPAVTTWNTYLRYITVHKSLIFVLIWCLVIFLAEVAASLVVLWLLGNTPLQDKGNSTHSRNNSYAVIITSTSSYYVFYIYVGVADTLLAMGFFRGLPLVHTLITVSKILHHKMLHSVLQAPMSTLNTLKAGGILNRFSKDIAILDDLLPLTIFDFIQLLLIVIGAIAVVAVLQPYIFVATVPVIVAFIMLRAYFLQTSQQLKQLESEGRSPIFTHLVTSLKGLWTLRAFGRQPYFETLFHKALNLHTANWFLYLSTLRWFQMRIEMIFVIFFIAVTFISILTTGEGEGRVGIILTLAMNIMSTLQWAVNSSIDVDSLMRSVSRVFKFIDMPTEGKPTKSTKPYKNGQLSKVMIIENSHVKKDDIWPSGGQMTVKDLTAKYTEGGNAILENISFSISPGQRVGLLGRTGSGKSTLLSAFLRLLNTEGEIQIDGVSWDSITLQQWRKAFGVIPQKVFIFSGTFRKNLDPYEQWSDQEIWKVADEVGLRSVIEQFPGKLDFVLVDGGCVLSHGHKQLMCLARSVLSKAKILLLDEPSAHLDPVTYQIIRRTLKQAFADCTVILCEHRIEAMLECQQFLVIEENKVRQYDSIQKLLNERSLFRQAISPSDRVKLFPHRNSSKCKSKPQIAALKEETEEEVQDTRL
T2 sequence (P13569 whole entry): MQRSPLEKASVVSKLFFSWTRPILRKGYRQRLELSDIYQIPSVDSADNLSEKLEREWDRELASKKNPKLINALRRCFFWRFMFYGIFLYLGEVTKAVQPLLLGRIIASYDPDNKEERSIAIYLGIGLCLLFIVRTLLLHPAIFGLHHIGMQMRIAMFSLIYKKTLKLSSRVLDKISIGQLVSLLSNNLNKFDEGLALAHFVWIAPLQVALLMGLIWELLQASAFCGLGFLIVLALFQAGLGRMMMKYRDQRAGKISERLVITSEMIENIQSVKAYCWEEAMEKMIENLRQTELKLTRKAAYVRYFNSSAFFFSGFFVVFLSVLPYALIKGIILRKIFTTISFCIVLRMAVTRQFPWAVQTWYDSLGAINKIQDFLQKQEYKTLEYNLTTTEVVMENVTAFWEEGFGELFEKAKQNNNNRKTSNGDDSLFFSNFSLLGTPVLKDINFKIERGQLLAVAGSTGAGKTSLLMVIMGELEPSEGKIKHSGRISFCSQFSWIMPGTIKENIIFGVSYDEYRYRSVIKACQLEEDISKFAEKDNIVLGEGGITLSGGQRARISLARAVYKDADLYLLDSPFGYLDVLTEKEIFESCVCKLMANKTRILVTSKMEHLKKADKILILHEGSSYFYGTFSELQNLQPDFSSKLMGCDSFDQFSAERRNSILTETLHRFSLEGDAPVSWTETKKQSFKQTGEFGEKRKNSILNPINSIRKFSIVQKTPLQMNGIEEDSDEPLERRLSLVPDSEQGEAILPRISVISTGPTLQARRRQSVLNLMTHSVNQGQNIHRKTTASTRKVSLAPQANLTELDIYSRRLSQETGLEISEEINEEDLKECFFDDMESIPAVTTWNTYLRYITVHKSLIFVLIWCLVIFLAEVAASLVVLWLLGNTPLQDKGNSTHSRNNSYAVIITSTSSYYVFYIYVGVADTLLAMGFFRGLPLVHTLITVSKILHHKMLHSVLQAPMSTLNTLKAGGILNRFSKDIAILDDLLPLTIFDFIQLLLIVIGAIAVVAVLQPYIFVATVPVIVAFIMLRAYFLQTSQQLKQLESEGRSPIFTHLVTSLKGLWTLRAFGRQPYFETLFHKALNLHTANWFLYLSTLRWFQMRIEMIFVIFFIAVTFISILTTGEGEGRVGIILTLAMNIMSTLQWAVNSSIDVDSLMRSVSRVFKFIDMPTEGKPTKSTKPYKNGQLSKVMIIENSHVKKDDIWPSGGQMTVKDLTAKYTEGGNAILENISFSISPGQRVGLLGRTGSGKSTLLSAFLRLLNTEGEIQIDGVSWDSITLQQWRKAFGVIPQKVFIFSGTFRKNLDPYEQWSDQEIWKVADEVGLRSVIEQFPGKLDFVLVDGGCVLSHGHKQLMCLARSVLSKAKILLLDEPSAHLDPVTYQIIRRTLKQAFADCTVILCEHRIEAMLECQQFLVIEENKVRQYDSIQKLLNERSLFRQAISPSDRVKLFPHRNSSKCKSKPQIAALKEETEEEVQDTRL

For the molecule `O=S(=O)(O)c1cc(N=C=S)ccc1C=Cc1ccc(N=C=S)cc1S(=O)(=O)O` [DIDS], the “effect of known CFTR inhibitors on delF508 activity after treatment with kenpaullone” value (“effect of known CFTR inhibitors” for short) at delF508-CFTR [1] is on record as “insensitive”.

For the molecule `O=C(O)c1ccccc1Nc1ccccc1` [DPC], the “effect of known CFTR inhibitors” value on delF508-CFTR [1] is listed as “blocked”.

With `O=C1Cc2c([nH]c3ccc([N+](=O)[O-])cc23)-c2ccccc2N1` [alsterpaullone], on delF508-CFTR [1], the “delF508-CFTR activity (iodide efflux) normalised to MPB-91 standard treatment” value is given as “no effect”.

In the case of `COc1ccc(Cl)cc1C(=O)NCCc1ccc(S(=O)(=O)NC(=O)NC2CCCCC2)cc1` [glibenclamide], at delF508-CFTR [1], the “effect of known CFTR inhibitors” value was “blocked”.

As to `O=C1Cc2c([nH]c3ccc(Br)cc23)-c2ccccc2N1` [kenpaullone], at delF508-CFTR [2], the “localisation of delF508 protein” value is “redirect the delF508 protein towards the membrane”. Moreover, the toxicity in animals entry in data set [3] is given as “only very slight toxicity”. For the same molecule, on wild-type CFTR [4], the “CFTR activity after treatment (wild-type CFTR addressing)” value was “not significantly different from the controls”. The “cell viability (MTT)” value in the data set on CHO-WT cells is “viable at all concentrations”. On delF508-CFTR [1], the EC50 stood at 22 ± 1.7 µM and the “delF508-CFTR activity (iodide efflux) normalised to MPB-91 standard treatment” value is reported as “higher than that obtained with MPB-91”. For the same molecule, at wild-type CFTR [5], the “activation of wild-type CFTR or other anionic transporter” value was “not found to be an activator”. The “selectivity for GSK-3 inhibition” value in the data set with GSK-3 is “highly selective”.
